Test results taken from patent publication US11753407B2, “Compounds for treating spinal muscular atrophy” (PTC Therapeutics, Inc., priority 2012, dated 2023).

Columns and labels:
[1] = system: SMN2 minigene mRNA (SMN2-A minigene) in HEK293H cells; assay: SMN2 minigene mRNA splicing RT-qPCR assay in cultured cells; type: cell-based, human; details: Homo sapiens, HEK293-H; concentration increasing full length SMN2 mRNA 1.5-fold relative to vehicle-treated cells; HEK293H cells with SMN2-A minigene, 24 hours, 7-point concentration data; read-out: EC1.5x for production of full length SMN2 mRNA
Procedure, shortened: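 Potency reflects the concentration that lifts full-length SMN2 minigene mRNA 1.5-fold above vehicle in stably transfected HEK293H cells after 24 h of treatment. Transcript abundance came from RT-qPCR as (1+E)^−Ct, normalized to GAPDH; endogenous SMN1/SMN2 are not detected.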

[2] = system: Smn protein in SMA patient fibroblast cells (GM03813); assay: Smn protein assay in cultured cells (SMN HTRF); type: cell-based, human; details: SMA patient fibroblast cells, 48 hours; for EC1.5x for Smn protein expression: 7-point concentration curve, SMN HTRF, concentration producing 1.5 times Smn protein vs DMSO vehicle control; for maximum fold (Fold) increase of Smn protein: 7-point concentration data, fold relative to vehicle control
Procedure, shortened: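 Smn protein abundance in treated SMA fibroblasts was measured by HTRF after 48 h compound exposure. The reported EC1.5× is the concentration producing 1.5 times vehicle Smn levels.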

| melting point [°C] | Compound | EC (1.5-fold increase) [1] [µM] | EC1.5x for Smn protein expression [2] | maximum fold (Fold) increase of Smn protein [2] |
| --- | --- | --- | --- | --- |
| 148 | COc1ccc(-c2cc(=O)n3cc(N4CCN(C)[C@H](C)C4)cc(C)c3n2)cc1OC [Compound 333, 2-(3,4-dimethoxyphenyl)-7-[(3R)-3,4-dimethylpiperazin-1-yl]-9-methyl-4H-pyrido[1,2-a]pyrimidin-4-one] | 0.1 to 0.3 | ** (an EC1.5× between >1 μM and ≤3 μM is indicated by two stars (**)) | **** (a fold increase between >1.5 and ≤1.65 is indicated by four stars (****)) |
| 169 to 171 | Cc1cn2nc(-c3cc(=O)n4cc(N5CCCN(C)CC5)ccc4n3)cc2c(C)n1 [Compound 334, 2-(4,6-dimethylpyrazolo[1,5-a]pyrazin-2-yl)-7-(4-methyl-1,4-diazepan-1-yl)-4H-pyrido[1,2-a]pyrimidin-4-one] | < 0.1 | **** (an EC1.5x≤0.3 μM is indicated by four stars (****)) | ***** (a fold increase >1.65 is indicated by five stars (*****)) |
| 215 to 218 | Cc1cn2nc(-c3cc(=O)n4cc(N5CCN6CCC[C@H]6C5)ccc4n3)cc2c(C)n1 [Compound 336, 2-(4,6-dimethylpyrazolo[1,5-a]pyrazin-2-yl)-7-[(8aS)-hexahydropyrrolo[1,2-a]pyrazin-2(1H)-yl]-4H-pyrido[1,2-a]pyrimidin-4-one] | 0.1 to 0.3 | **** (an EC1.5x≤0.3 μM is indicated by four stars (****)) | ***** (a fold increase >1.65 is indicated by five stars (*****)) |
| 228 to 230 | Cc1cn2nc(-c3cc(=O)n4cc(N5CCN6CCC[C@@H]6C5)ccc4n3)cc2c(C)n1 [Compound 337, 2-(4,6-dimethylpyrazolo[1,5-a]pyrazin-2-yl)-7-[(8aR)-hexahydropyrrolo[1,2-a]pyrazin-2(1H)-yl]-4H-pyrido[1,2-a]pyrimidin-4-one] | < 0.1 | **** (an EC1.5x≤0.3 μM is indicated by four stars (****)) | ***** (a fold increase >1.65 is indicated by five stars (*****)) |
| 251 to 253 | CCN1CCN(c2ccc3nc(-c4cc5c(C)nc(C)cn5n4)cc(=O)n3c2)CC1 [Compound 338, 2-(4,6-dimethylpyrazolo[1,5-a]pyrazin-2-yl)-7-(4-ethylpiperazin-1-yl)-4H-pyrido[1,2-a]pyrimidin-4-one] | < 0.1 | **** (an EC1.5x≤0.3 μM is indicated by four stars (****)) | ***** (a fold increase >1.65 is indicated by five stars (*****)) |
| 208 to 210 | Cc1cn2nc(-c3cc(=O)n4cc(N5CCC(N(C)C)CC5)ccc4n3)cc2c(C)n1 [Compound 339, 7-[4-(dimethylamino)piperidin-1-yl]-2-(4,6-dimethylpyrazolo[1,5-a]pyrazin-2-yl)-4H-pyrido[1,2-a]pyrimidin-4-one] | < 0.1 | **** (an EC1.5x≤0.3 μM is indicated by four stars (****)) | ***** (a fold increase >1.65 is indicated by five stars (*****)) |
| 195 to 197 | Cc1cn2nc(-c3cc(=O)n4cc(N5CCNC(C)(C)C5)ccc4n3)cc2c(C)n1 [Compound 340, 7-(3,3-dimethylpiperazin-1-yl)-2-(4,6-dimethylpyrazolo[1,5-a]pyrazin-2-yl)-4H-pyrido[1,2-a]pyrimidin-4-one] | < 0.1 | **** (an EC1.5x≤0.3 μM is indicated by four stars (****)) | ***** (a fold increase >1.65 is indicated by five stars (*****)) |
| 189 to 192 | Cc1cn2nc(-c3cc(=O)n4cc(N5CCN(C6CC6)CC5)ccc4n3)cc2c(C)n1 [Compound 341, 7-(4-cyclopropylpiperazin-1-yl)-2-(4,6-dimethylpyrazolo[1,5-a]pyrazin-2-yl)-4H-pyrido[1,2-a]pyrimidin-4-one] | 0.3 to 1 | *** (an EC1.5× between >0.3 μM and ≤1 μM is indicated by three stars (***)) | ***** (a fold increase >1.65 is indicated by five stars (*****)) |
| 191 to 198 | COc1ccc(-c2cc(=O)n3cc(N4CCN(C)CC4)cc(C)c3n2)cc1OC [Compound 344, 2-(3,4-dimethoxyphenyl)-9-methyl-7-(4-methylpiperazin-1-yl)-4H-pyrido[1,2-a]pyrimidin-4-one] | 0.1 to 0.3 | *** (an EC1.5× between >0.3 μM and ≤1 μM is indicated by three stars (***)) | ***** (a fold increase >1.65 is indicated by five stars (*****)) |
| 146 to 150 | CCc1cc(N2CCC(N(C)C)CC2)cn2c(=O)cc(-c3ccc(OC)c(OC)c3)nc12 [Compound 345, 2-(3,4-dimethoxyphenyl)-7-[4-(dimethylamino)piperidin-1-yl]-9-ethyl-4H-pyrido[1,2-a]pyrimidin-4-one] | < 0.1 |  | *** (a fold increase between >1.35 and ≤1.5 is indicated by three stars (***)) |
| 218 to 220 | Cc1nc2cc(-c3cc(=O)n4cc(N5CCC(N(C)C)CC5)ccc4n3)ccc2s1 [Compound 347, 7-[4-(dimethylamino)piperidin-1-yl]-2-(2-methyl-1,3-benzothiazol-5-yl)-4H-pyrido[1,2-a]pyrimidin-4-one] | < 0.1 |  | *** (a fold increase between >1.35 and ≤1.5 is indicated by three stars (***)) |
| 190 to 192 | Cc1nc2cc(-c3cc(=O)n4cc(N5CCC(N)CC5)ccc4n3)ccc2s1 [Compound 348, 7-(4-aminopiperidin-1-yl)-2-(2-methyl-1,3-benzothiazol-5-yl)-4H-pyrido[1,2-a]pyrimidin-4-one] | 0.1 to 0.3 |  | ** (a fold increase between >1.2 and ≤1.35 is indicated by two stars (**)) |

| Compound | melting point [°C] | EC (1.5-fold increase) [1] [µM] | EC1.5x for Smn protein expression [2] | maximum fold (Fold) increase of Smn protein [2] |
| --- | --- | --- | --- | --- |
| COc1ccc(-c2cc(=O)n3cc(C4=CCN(CCO)CC4)cc(C)c3n2)cc1OC [Compound 346, 2-(3,4-dimethoxyphenyl)-7-[1-(2-hydroxyethyl)-1,2,3,6-tetrahydropyridin-4-yl]-9-methyl-4H-pyrido[1,2-a]pyrimidin-4-one] | 169 to 179 | < 0.1 | **** (an EC1.5x≤0.3 μM is indicated by four stars (****)) | **** (a fold increase between >1.5 and ≤1.65 is indicated by four stars (****)) |
| Cc1cn2nc(-c3cc(=O)n4cc(C5=CCN(C)CC5)ccc4n3)cc2c(C)n1 [Compound 350, 2-(4,6-dimethylpyrazolo[1,5-a]pyrazin-2-yl)-7-(1-methyl-1,2,3,6-tetrahydropyridin-4-yl)-4H-pyrido[1,2-a]pyrimidin-4-one] | 193 to 197 | < 0.1 | **** (an EC1.5x≤0.3 μM is indicated by four stars (****)) | ***** (a fold increase >1.65 is indicated by five stars (*****)) |
